Assays:
[1] = Metabolic stability in rat liver microsomes; assay type: in vitro ADME; conditions: 0.5 mg/mL protein, read-out: Rats T1/2
Method: (§1) This assay is used to test the metabolic stability of tested substances in rats, mice and human liver microsomes.
(§2) 1) The tested compound with concentration of 1 μM was co-incubated with liver microsomes with a protein concentration of 0.5 mg/mL under a reducing coenzyme II regeneration system in a 37° C. water bath.
(§3) 2) The positive controls include: testosterone (3A4 substrate), propafenene (2D6 substrate) and diclofenac (2C9 substrate). The incubation condition of the positive controls was consistent with that of the compound.
(§4) 3) The reaction time points were: 0, 5, 10, 20, 30 and 60 minutes, and the reaction is terminated at the corresponding time point using a termination solution containing an internal standard. The compounds were also incubated with microsomes for 60 minutes without a reducing coenzyme II regeneration system and served as a negative control.
(§5) 4) Each time point was a single point (n=1).
(§6) 5) The sample was determined by LC/MS/MS, and the compound concentration was shown as the ratio of the peak area of the compound to the peak area of the internal standard (non-standard).
(§7) 6) In the project report summary, the half-life and the clearance rate would be calculated.

[2] = Metabolic stability in mouse liver microsomes; assay type: in vitro ADME; conditions: 0.5 mg/mL protein, read-out: Mice T1/2
Method: as §1, §2, §3, §4, §5, §6, §7

[3] = tested on: non-small cell lung cancer NCI-H358 model; experiment: In vivo pharmacodynamic study (2), NCI-H358 model, tumor volume; set-up: species or system BALB/c nude mice; conditions: for Gross tumor volume (Day 1): Day 1, Table 6-2; for Gross tumor volume (Day 28): Day 28, Table 6-2
Method: The in vivo pharmacodynamic experiments were performed on the BALB/c nude mice implanted subcutaneously with the non-small cell lung cancer NCI-H358 model.
All of the cages, beddings and water were disinfected before use. All of the animals were permitted free access to a standard certified commercial laboratory diet. A total of 86 mice purchased from Vital River Laboratory Animal Co., LTD, Beijing were used for the study. The animal information of the experiments in Example 34 was as follows: BALB/c nude mice, female, 6-8 weeks, weighing approximately 16-18 g, were placed in a single ventilated cage (4 mice per cage) under a special pathogen free environment. All of the cages, beddings and water were disinfected before use. All of the animals were permitted free access to a standard certified commercial laboratory diet. A total of 56 mice purchased from Shanghai Lingchang Biotechnology Co., Ltd. were used for the study.
Each mouse was implanted subcutaneously with NCI-H358 tumor cells in the right back for tumor growth. The dosing initiated when the average tumor volume reached about 100-200 mm^3. […] The tumor volume was measured twice a week using a two-dimensional caliper, and the volume was measured in mm^3, calculated by the following the formula: V=0.5 a×b^2, wherein, a and b were the long and short diameters of the tumor, respectively. The antitumor efficacy was determined by dividing the average increase in the tumor volume of the animals treated with the compound by the average increase in the tumor volume of the untreated animals, and the safety of the compound was determined by the change in the body weight of the animal treated with the compound.
TGI: Tumor Growth Inhibition.

[4] = tested on: colorectal cancer HCT-116 model; experiment: In vivo pharmacodynamic study (3), HCT-116 model, tumor volume; set-up: species or system BALB/c nude mice; conditions: 60 mg/kg(D0-D11), 120 mg/kg (D12-D20), PO, QD × 21
Method: (§8) The in vivo pharmacodynamic experiments were performed on the BALB/c nude mice implanted subcutaneously with the colorectal cancer HCT-116 model.
(§9) BALB/c nude mice, female, 6-8 weeks, weighing approximately 18-22 g, were placed in a single ventilated cage (3-5 mice per cage) under a special pathogen free environment. All of the cages, beddings and water were disinfected before use. All of the animals were permitted free access to a standard certified commercial laboratory diet. A total of 48 mice purchased from Shanghai Lingchang Biotechnology Co., Ltd. were used for the study. Each mouse was implanted subcutaneously with 0.2 mL of 5×10^6 HCT-116 cells in the right back for tumor growth. The dosing in groups initiated when the average tumor volume reached about 132 mm^3. The tumor volume was measured twice a week using a two-dimensional caliper, and the volume was measured in mm^3, calculated by the following the formula: V=0.5 a×b^2, wherein, a and b were the long and short diameters of the tumor, respectively. The antitumor efficacy was determined by dividing the average increase in the tumor volume of the animals treated with the compound by the average increase in the tumor volume of the untreated animals.

[5] = In vivo pharmacodynamic study (3), HCT-116 model, animal weight; set-up: species or system BALB/c nude mice; conditions: 60 mg/kg(D0-D11), 120 mg/kg (D12-D20), PO
Method: as §8, §9

CC(=O)c1c(C)c2cnc(Nc3cnc(N4CCN(CCN(C)C)CC4)cn3)cc2n(C2CCCC2)c1=O [Example 34]
half-life at 1 μM [1]: > 145 min | half-life at 1 μM [2]: 40.2 min | Gross tumor volume (Day 1) ([3]; 20 mg/kg orally daily): 149 ± 18 mm^3 | TGI (Day 28) ([3]; 20 mg/kg orally daily): 15.3% | Gross tumor volume (Day 28) ([3]; 20 mg/kg orally daily): 940 ± 70 mm^3 | Gross tumor volume (Day 1) ([3]; 60 mg/kg orally daily): 169 ± 27 mm^3 | TGI (Day 28) ([3]; 60 mg/kg orally daily): 32.1% | Gross tumor volume (Day 28) ([3]; 60 mg/kg orally daily): 804 ± 103 mm^3 | Gross tumor volume (Day 1) ([3]; 150 mg/kg orally daily): 149 ± 18 mm^3 | TGI (Day 28) ([3]; 150 mg/kg orally daily): 92.9% | Gross tumor volume (Day 28) ([3]; 150 mg/kg orally daily): 215 ± 34 mm^3 | Gross tumor volume, 0 day ([4]; 0 day): 132 mm^3 | Gross tumor volume, 7 days ([4]; 7 days): 416 mm^3 | Gross tumor volume, 14 days ([4]; 14 days): 695 mm^3 | Gross tumor volume, 21 days ([4]; 21 days): 963 mm^3 | Changes in animal weight, 0 day ([5]; QD × 21, 0 day): 0% | Changes in animal weight, 7 days ([5]; QD × 21, 7 days): 2.5% | Changes in animal weight, 14 days ([5]; QD × 21, 14 days): −2.3% | Changes in animal weight, 21 days ([5]; QD × 21, 21 days): −5.9%

From US10676474B2, “1,6-naphthyridine derivatives as CDK4/6 inhibitor” (CSTONE PHARMACEUTICALS, priority 2016, dated 2020)
